36 molecules from patent publication US8921376B2, “Pyrrolopyridines useful as inhibitors of protein kinase” (Vertex Pharmaceuticals Incorporated, priority 2005, dated 2014) can be followed below.

Assay type in all cases: biochemical
Assay [1] has as its target ROCK I (Homo sapiens, UniProt Q13464). In words: ROCK-I inhibition assay (radioactive enzyme assay, MBP substrate). The procedure, abridged:
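Human ROCK at 5 nM phosphorylated 27 μM myelin basic protein with 13 μM [γ-33P]ATP (final) in HEPES pH 7.5, MgCl2, NaCl, DTT and 1.5% DMSO. Reactions ran 2 h at room temperature before TCA quench and filter-plate scintillation counting. After background subtraction, data were fit to give Ki(app).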

For assay [2], the target named is T1, JAK3 (Homo sapiens, UniProt P52333).
T1 sequence (P52333 1-1124): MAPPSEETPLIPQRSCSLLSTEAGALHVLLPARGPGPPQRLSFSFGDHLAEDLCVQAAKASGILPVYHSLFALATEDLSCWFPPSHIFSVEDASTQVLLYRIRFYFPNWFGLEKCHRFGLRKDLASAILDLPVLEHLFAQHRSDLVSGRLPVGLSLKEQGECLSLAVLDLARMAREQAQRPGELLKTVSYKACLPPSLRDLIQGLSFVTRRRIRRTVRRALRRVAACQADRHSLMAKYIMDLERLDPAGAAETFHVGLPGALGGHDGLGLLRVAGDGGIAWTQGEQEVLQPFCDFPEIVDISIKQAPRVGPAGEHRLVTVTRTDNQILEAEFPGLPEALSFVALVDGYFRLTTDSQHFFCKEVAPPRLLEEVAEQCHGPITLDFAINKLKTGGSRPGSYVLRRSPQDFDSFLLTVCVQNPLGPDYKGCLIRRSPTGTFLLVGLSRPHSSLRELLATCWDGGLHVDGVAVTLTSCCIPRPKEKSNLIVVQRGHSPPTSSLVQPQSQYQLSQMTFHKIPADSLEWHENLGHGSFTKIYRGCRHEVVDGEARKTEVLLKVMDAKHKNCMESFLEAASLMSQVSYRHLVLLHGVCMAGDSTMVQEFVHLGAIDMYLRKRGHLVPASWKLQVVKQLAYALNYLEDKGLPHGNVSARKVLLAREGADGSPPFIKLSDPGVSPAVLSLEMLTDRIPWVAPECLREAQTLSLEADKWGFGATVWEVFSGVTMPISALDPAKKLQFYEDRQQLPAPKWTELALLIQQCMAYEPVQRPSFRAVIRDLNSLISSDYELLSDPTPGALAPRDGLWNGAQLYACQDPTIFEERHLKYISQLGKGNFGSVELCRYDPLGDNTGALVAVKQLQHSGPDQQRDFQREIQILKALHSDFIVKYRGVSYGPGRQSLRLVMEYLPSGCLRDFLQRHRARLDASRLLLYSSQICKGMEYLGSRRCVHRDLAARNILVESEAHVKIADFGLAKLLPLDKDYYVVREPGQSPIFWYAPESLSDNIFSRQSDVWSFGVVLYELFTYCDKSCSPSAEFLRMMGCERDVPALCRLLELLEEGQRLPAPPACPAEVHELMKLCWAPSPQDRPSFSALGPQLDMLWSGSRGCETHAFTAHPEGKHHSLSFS
The assay is described as follows: JAK3 inhibition assay (33P incorporation into poly(Glu)4Tyr). The procedure, abridged:
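After TCA quench and filter harvest, scintillation counting of 33P measured phosphorylation of poly(Glu)4Tyr (1 μM) by 1 nM JAK3. The 20-min, 25° C. reaction contained 5 μM ATP (200 μCi/μmole) in pH 7.4 HEPES buffer with 10 mM MgCl2.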

Assay [3] has as its target JAK2 (Homo sapiens, UniProt O60674). In words: JAK2 inhibition assay (as Example 3 with JAK-2 enzyme). The procedure, abridged:
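In HEPES pH 7.4 buffer with 10 mM MgCl2, 1 mM DTT, 25 mM NaCl and 0.01% BSA, JAK2 enzyme phosphorylated poly(Glu)4Tyr (final 15 μM) using 33P-ATP (final 12 μM) for 20 min at room temperature (25 °C). Reactions stopped with TCA; incorporated 33P measured by scintillation after filtration.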

Setting [4] is: Table 6, enzyme inhibition data (Ki).
[5] abbreviates: enzyme inhibition, Ki(app), Table 5.

Sequence of ROCK I (Q13464 whole entry): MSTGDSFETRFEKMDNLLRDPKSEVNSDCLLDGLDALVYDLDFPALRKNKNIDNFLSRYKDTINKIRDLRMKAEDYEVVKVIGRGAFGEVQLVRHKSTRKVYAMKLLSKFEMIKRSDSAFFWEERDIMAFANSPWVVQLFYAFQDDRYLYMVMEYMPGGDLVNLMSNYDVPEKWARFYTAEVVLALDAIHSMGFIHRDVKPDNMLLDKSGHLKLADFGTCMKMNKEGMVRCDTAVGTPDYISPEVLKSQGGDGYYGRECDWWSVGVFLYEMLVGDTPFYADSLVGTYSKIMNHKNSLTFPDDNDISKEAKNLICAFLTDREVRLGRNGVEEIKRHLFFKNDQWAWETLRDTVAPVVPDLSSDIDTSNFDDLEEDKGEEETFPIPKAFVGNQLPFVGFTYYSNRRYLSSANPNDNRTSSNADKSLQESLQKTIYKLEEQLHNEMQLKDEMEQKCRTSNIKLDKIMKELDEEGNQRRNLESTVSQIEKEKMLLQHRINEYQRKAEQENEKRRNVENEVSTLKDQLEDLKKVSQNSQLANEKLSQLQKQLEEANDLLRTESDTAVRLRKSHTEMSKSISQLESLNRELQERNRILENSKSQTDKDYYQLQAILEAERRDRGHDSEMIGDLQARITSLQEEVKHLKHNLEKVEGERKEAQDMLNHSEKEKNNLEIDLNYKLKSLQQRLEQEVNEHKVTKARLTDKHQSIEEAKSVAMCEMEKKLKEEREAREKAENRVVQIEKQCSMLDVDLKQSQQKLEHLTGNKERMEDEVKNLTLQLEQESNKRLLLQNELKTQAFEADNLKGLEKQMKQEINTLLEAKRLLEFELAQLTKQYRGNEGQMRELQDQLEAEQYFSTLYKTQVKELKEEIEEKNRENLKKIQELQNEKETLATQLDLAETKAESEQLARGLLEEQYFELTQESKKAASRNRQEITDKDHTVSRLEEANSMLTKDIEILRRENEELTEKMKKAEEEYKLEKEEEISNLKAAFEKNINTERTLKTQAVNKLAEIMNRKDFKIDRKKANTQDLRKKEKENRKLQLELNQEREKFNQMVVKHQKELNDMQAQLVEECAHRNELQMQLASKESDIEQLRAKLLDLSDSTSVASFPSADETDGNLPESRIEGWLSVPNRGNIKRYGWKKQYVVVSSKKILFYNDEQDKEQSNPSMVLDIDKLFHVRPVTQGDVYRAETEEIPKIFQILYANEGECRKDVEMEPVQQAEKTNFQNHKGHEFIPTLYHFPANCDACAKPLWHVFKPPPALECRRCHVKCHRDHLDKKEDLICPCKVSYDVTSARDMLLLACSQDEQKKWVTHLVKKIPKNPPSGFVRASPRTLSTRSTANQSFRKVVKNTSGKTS
Sequence of JAK2 (O60674 whole entry): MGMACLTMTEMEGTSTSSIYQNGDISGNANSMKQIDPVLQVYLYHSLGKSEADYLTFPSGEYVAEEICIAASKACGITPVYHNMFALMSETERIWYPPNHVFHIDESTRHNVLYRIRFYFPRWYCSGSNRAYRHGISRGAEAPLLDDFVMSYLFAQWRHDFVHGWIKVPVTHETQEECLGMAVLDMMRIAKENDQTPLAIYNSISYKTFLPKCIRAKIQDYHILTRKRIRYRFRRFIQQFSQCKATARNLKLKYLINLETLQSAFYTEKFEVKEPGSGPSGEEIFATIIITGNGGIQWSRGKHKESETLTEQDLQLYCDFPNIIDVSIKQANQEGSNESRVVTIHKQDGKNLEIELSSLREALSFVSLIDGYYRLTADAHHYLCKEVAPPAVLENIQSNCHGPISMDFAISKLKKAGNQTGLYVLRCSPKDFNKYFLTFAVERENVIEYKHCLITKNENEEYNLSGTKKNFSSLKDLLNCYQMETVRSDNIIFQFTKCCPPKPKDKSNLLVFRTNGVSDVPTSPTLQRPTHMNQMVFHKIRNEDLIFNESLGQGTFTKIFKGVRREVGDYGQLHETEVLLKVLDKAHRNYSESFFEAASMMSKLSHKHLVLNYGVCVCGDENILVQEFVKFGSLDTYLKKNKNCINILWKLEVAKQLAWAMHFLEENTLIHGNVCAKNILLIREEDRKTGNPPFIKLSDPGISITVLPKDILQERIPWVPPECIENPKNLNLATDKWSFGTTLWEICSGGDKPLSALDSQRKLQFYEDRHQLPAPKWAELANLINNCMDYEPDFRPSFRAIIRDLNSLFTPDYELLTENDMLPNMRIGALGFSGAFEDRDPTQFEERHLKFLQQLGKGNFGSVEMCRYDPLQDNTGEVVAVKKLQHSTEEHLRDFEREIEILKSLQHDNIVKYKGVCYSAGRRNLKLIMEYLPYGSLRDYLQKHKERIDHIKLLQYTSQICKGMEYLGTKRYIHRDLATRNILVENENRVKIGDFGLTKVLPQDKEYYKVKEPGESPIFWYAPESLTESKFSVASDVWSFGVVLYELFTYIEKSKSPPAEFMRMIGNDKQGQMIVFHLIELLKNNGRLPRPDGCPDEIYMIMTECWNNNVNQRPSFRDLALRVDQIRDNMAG

Consider `Clc1cnc2[nH]ccc2c1NC1CCCCCC1` [compound 149], for which the Ki in assay [1] (setting [4]), in assay [2] (setting [4]) and in assay [3] (setting [4]) was under 0.5 µM in each case.

For the molecule `CN(C)c1cccc(-c2ccnc3[nH]ccc23)c1` [compound 31, Dimethyl-[3-(1H-pyrrolo[2,3-b]pyridin-4-yl)-phenyl]-amine], the Ki was under 0.5 µM in assay [1] (setting [5]); under 0.5 µM in assay [2] (enzyme inhibition, Table 5); under 0.5 µM in assay [3] (enzyme inhibition, Table 5).

`Cc1cccc(-c2ccnc3[nH]ccc23)c1C` [compound 212]: the Ki in assay [1] (setting [4]), in assay [2] (setting [4]) and in assay [3] (setting [4]) was 0.5 to 5 µM in each case.

Take `COCc1cccc(-c2ccnc3[nH]ccc23)c1` [compound 62, 4-(3-Methoxymethyl-phenyl)-1H-pyrrolo[2,3-b]pyridine]: the Ki was under 0.5 µM in assay [1] (setting [5]); under 0.5 µM in assay [2] (enzyme inhibition, Table 5); under 0.5 µM in assay [3] (enzyme inhibition, Table 5).

In the case of `CCCCN(CCC#N)C(=O)c1cc(-c2c(Cl)cnc3[nH]ccc23)c[nH]1` [compound 336], the Ki was 0.5 to 5 µM in assay [1] (setting [4]), under 0.5 µM in assay [2] (setting [4]) and under 0.5 µM in assay [3] (setting [4]).

In the case of `CCCN(CCC)C(=O)c1ccc(-c2ccnc3[nH]ccc23)s1` [compound 325], the Ki in assay [1] (setting [4]), in assay [2] (setting [4]) and in assay [3] (setting [4]) was under 0.5 µM in each case.

Regarding `O=C(CC(F)(F)F)N1CCCC(Nc2c(Cl)cnc3[nH]ccc23)C1` (stereo not drawn) [compound 186], the Ki was 0.5 to 5 µM in assay [1] (setting [4]), under 0.5 µM in assay [2] (setting [4]) and under 0.5 µM in assay [3] (setting [4]).

With `Fc1cccc(-c2c(Cl)cnc3[nH]ccc23)n1` [compound 48, 5-chloro-4-(6-fluoropyridin-2-yl)-1H-pyrrolo[2,3-b]pyridine], the Ki in assay [1] (setting [5]) is 0.5 to 5 µM; in assay [2] (enzyme inhibition, Table 5), under 0.5 µM; in assay [3] (enzyme inhibition, Table 5), under 0.5 µM.

Take `CCN(Cc1ccccc1)C(=O)c1cc(-c2ccnc3[nH]ccc23)c[nH]1` [compound 313]: the Ki in assay [1] (setting [4]), in assay [2] (setting [4]) and in assay [3] (setting [4]) was under 0.5 µM each time.

Turning to `CC(C)CN(C)C(=O)c1cc(-c2ccnc3[nH]ccc23)c[nH]1` [compound 310], the Ki was 0.5 to 5 µM in assay [1] (setting [4]), under 0.5 µM in assay [2] (setting [4]) and under 0.5 µM in assay [3] (setting [4]).

For the molecule `CCN(CCO)C(=O)c1cc(-c2c(Cl)cnc3[nH]ccc23)c[nH]1` [compound 345], the Ki in assay [1] (setting [4]) was 0.5 to 5 µM; in assay [2] (setting [4]), under 0.5 µM; in assay [3] (setting [4]), under 0.5 µM.

With `COC(=O)c1ccccc1-c1ccnc2[nH]ccc12` [compound 117], the Ki was 0.5 to 5 µM in assay [1] (setting [5]); over 5 µM in assay [2] (enzyme inhibition, Table 5); over 5 µM in assay [3] (enzyme inhibition, Table 5).

On to `c1cnc2c(-c3ccnc4[nH]ccc34)cccc2c1` [compound 227], for which the Ki in assay [1] (setting [4]) was over 4 µM; in assay [2] (setting [4]), over 5 µM; in assay [3] (setting [4]), over 5 µM.

`CCC(=O)N1CCCC(Nc2c(Cl)cnc3[nH]ccc23)C1` (stereo not drawn) [compound 175]: the Ki was over 4 µM in assay [1] (setting [4]), under 0.5 µM in assay [2] (setting [4]) and under 0.5 µM in assay [3] (setting [4]).

With `C=CCN(C(=O)c1csc(-c2ccnc3[nH]ccc23)n1)[C@@H](C)c1ccccc1` [compound 408], the Ki in assay [1] (setting [4]), in assay [2] (setting [4]) and in assay [3] (setting [4]) was under 0.5 µM each time.

Consider `CCCNC(=O)c1cc(-c2c(Cl)cnc3[nH]ccc23)c[nH]1` [compound 279], for which the figures for the Ki in assay [1] (setting [4]), in assay [2] (setting [4]) and in assay [3] (setting [4]) were 0.5 to 5 µM, under 0.5 µM and under 0.5 µM, respectively.

In the case of `CC(C)(C)OC(=O)n1c(-c2c(Cl)cnc3[nH]ccc23)cc2ccccc21` [compound 147], the Ki in assay [1] (setting [4]) was over 4 µM; in assay [2] (setting [4]) it was over 5 µM; in assay [3] (setting [4]), over 5 µM.

With `CC(=O)Nc1cccc(-c2ccnc3[nH]ccc23)n1` [compound 98, N-(6-(1H-pyrrolo[2,3-b]pyridine-4-yl)pyridin-2-yl)acetamine], the Ki in assay [1] (setting [5]) is 0.5 to 5 µM; in assay [2] (enzyme inhibition, Table 5), 0.5 to 5 µM; in assay [3] (enzyme inhibition, Table 5), under 0.5 µM.

As for `O=C(c1cc(-c2ccnc3[nH]ccc23)c[nH]1)N1CCC(O)C1` (stereo not drawn) [compound 377], the Ki in assay [1] (setting [4]) was under 0.5 µM; in assay [2] (setting [4]) it was 0.5 to 5 µM; in assay [3] (setting [4]), 0.5 to 5 µM.

Turning to `CC(C)Oc1ccc(-c2ccnc3[nH]ccc23)cc1` [compound 116, 4-(4-Isopropoxy-phenyl)-1H-pyrrolo[2,3-b]pyridine], the Ki in assay [1] (setting [5]) was under 0.5 µM; in assay [2] (enzyme inhibition, Table 5), under 0.5 µM; in assay [3] (enzyme inhibition, Table 5) it was under 0.5 µM.

Take `CC(C)CN(C)C(=O)c1cc(-c2c(Cl)cnc3[nH]ccc23)c[nH]1` [compound 341]: the Ki was 0.5 to 5 µM in assay [1] (setting [4]), under 0.5 µM in assay [2] (setting [4]) and under 0.5 µM in assay [3] (setting [4]).

Consider `CCCCN(CC#N)C(=O)c1cc(-c2ccnc3[nH]ccc23)c[nH]1` [compound 300], for which the Ki in assay [1] (setting [4]), in assay [2] (setting [4]) and in assay [3] (setting [4]) was under 0.5 µM each time.

With `Clc1ccc(-c2c(Cl)cnc3[nH]ccc23)s1` [compound 141], the figures for the Ki in assay [1] (setting [4]), in assay [2] (setting [4]) and in assay [3] (setting [4]) were over 4 µM, under 0.5 µM and under 0.5 µM, respectively.

For the molecule `N#CC1(c2cccc(-c3ccnc4[nH]ccc34)n2)CCCC1` [compound 102, 1-(6-(1H-pyrrolo[2,3-b]pyridin-4-yl)pyridin-2-yl)cyclopentanecarbonitrile], the Ki is under 0.5 µM in assay [1] (setting [5]); under 0.5 µM in assay [2] (enzyme inhibition, Table 5); under 0.5 µM in assay [3] (enzyme inhibition, Table 5).

Turning to `CCN(C)C(=O)c1cc(-c2ccnc3[nH]ccc23)c[nH]1` [compound 261], the Ki in assay [1] (setting [4]), in assay [2] (setting [4]) and in assay [3] (setting [4]) was under 0.5 µM in each case.

Consider `CC1CC=C(c2c(Cl)cnc3[nH]ccc23)C1C` (stereo not drawn) [compound 90], for which the Ki in assay [1] (setting [5]) was 0.5 to 5 µM; in assay [2] (enzyme inhibition, Table 5) it was under 0.5 µM; in assay [3] (enzyme inhibition, Table 5), under 0.5 µM.

As for `O=S(=O)(C1CC1)N1CC[C@H](Nc2c(Cl)cnc3[nH]ccc23)C1` [compound 179], the values for the Ki in assay [1] (setting [4]), in assay [2] (setting [4]) and in assay [3] (setting [4]) were over 4 µM, under 0.5 µM and under 0.5 µM, respectively.

Consider `O=C(Cc1nc(-c2ccnc3[nH]ccc23)ncc1F)NCC(F)(F)F` [compound 266], for which the values for the Ki in assay [1] (setting [4]), in assay [2] (setting [4]) and in assay [3] (setting [4]) were 0.5 to 5 µM, 0.5 to 5 µM and under 0.5 µM, respectively.

As to `O=C(c1cc(-c2c(F)cnc3[nH]ccc23)c[nH]1)N(CCC(F)(F)F)Cc1ccccc1` [compound 389], the Ki was 0.5 to 5 µM in assay [1] (setting [4]), under 0.5 µM in assay [2] (setting [4]) and under 0.5 µM in assay [3] (setting [4]).

For `CCN(Cc1ccccn1)C(=O)c1cc(-c2ccnc3[nH]ccc23)c[nH]1` [compound 305], the results for the Ki in assay [1] (setting [4]), in assay [2] (setting [4]) and in assay [3] (setting [4]) were 0.5 to 5 µM, under 0.5 µM and under 0.5 µM, respectively.

As for `Clc1cnc2[nH]ccc2c1C1=CCCCC1` [compound 29, 5-Chloro-4-cyclohexenyl-1H-pyrrolo[2,3b]pyridine], the Ki in assay [1] (setting [5]) is 0.5 to 5 µM; in assay [2] (enzyme inhibition, Table 5), under 0.5 µM; in assay [3] (enzyme inhibition, Table 5), under 0.5 µM.

On to `Clc1cnc2[nH]ccc2c1-c1csc2ccccc12` [compound 142], for which the results for the Ki in assay [1] (setting [4]), in assay [2] (setting [4]) and in assay [3] (setting [4]) were 0.5 to 5 µM, under 0.5 µM and under 0.5 µM, respectively.

Consider `O=C(c1cc(-c2c(Cl)cnc3[nH]ccc23)c[nH]1)N1CCCC(O)C1` (stereo not drawn) [compound 356], for which the Ki in assay [1] (setting [4]) was 0.5 to 5 µM; in assay [2] (setting [4]) it was under 0.5 µM; in assay [3] (setting [4]) it was under 0.5 µM.

With `O=C(NCC(F)(F)F)c1ccc(-c2ccnc3[nH]ccc23)s1` [compound 260], the Ki in assay [1] (setting [4]), in assay [2] (setting [4]) and in assay [3] (setting [4]) was under 0.5 µM throughout.

`O=C(c1cc(-c2ccnc3[nH]ccc23)c[nH]1)N1CCC(O)C1` (stereo not drawn) [compound 366]: the Ki in assay [1] (setting [4]), in assay [2] (setting [4]) and in assay [3] (setting [4]) was 0.5 to 5 µM in each case.

As for `Cc1ccc(-c2ccnc3[nH]ccc23)c(C)c1` [compound 218], the Ki in assay [1] (setting [4]) was under 0.5 µM; in assay [2] (setting [4]) it was 0.5 to 5 µM; in assay [3] (setting [4]) it was over 5 µM.
